According to patent US20130149399A1, “SKIN TEMPERATURE ELEVATING AGENT, AND COSMETIC COMPOSITION, FOOD AND SUNDRY ARTICLE CONTAINING THE SAME” (SHISEIDO COMPANY ,LTD., priority 2010, published 2013):

Test: Test method of measuring skin temperature when smelling the aroma of the test sample
Type: in vivo, human
Conditions: females in their 20's, aroma smelled from soaked cotton, chest skin temperature as reference, 25 °C, humidity 45%; for effect of the aroma on the skin temperature of the cheek (change level with aroma minus change level with no aroma): samples 0.05-0.1 mass % in triethyl citrate or ethanol, FIG. 1
Procedure: The present invention will be explained below in more detail with reference to examples. Test samples were prepared which were a dilution of an extract of Japanese peppermint by triethyl citrate to a concentration of 0.05 mass %, a dilution of an extract of juniper berry by triethyl citrate to a concentration of 0.1 mass %, a dilution of an extract of […] by triethyl citrate to a concentration of 0.05 mass %, a dilution of dihydro-β-ionol by ethanol to a concentration of 0.1 mass %, a dilution of geraniol by ethanol to a concentration of 0.1 mass %, and a dilution of 4-methoxystyrene by ethanol to a concentration of 0.5 mass %, and how the aromas of those test samples influenced a skin temperature was tested. In this example, test subjects were females in their 20's. Five test subjects for the extract of Japanese peppermint, seven test subjects for the extract of juniper berry, three test subjects for the extract of […] test subjects for dihydro-β-ionol, five test subjects for geraniol, and seven test subjects for 4-methoxystyrene participated in the tests. The test content was explained in advance to the test subjects, and the participation in the test was agreed in writing. The tests were carried out in a room at a constant temperature set to 25 ° C. and a constant humidity set to 45%. Skin temperature sensors were attached to a cheek of the test subject, a hand fingertip (middle finger), and a chest, and connected to a temperature monitor to successively measure the skin temperature. […] Skin temperature change levels of a cheek and those of a hand fingertip between when an aroma was smelled and when no aroma was smelled were compared with each other, and an effect of the aroma of the test sample to the skin temperature was evaluated. […] When this value is a positive one, it is determined that a skin temperature is raised and when this value is a negative one, it is determined that a skin temperature is lowered.

Row | SMILES | effect of the aroma on the skin temperature of the hand fingertip (change level with aroma minus change level with no aroma) (middle finger, samples 0.05-0.5 mass % in triethyl citrate or ethanol, FIG. 2) | effect of the aroma on the skin temperature of the cheek (change level with aroma minus change level with no aroma)
1 | C=Cc1ccc(OC)cc1 [4-methoxystyrene] | effect of raising the skin temperature of the hand fingertip | 
2 | CC1=C(CCC(C)O)C(C)(C)CCC1 (stereo not drawn) [dihydro-β-ionol, Dihydro-β-ionol] |  | effect of raising the skin temperature of the cheek
3 | CC(C)=CCC/C(C)=C/CO [geraniol, Geraniol] |  | effect of raising the skin temperature of the cheek
